# Reference: patent publication US20230087351A1, “METHYL 2-ALLYL-1 -METHYL-3-OXOINDOLINE-2-C[…] 9A-ALLYL-1,2,3,9A-TETRAHYDRO- 9H-PYRROLO[1,2-A]INDOL-9-ONE DERIVATIVES AND RELATED COMPOUNDS FOR USE AS F[…] FOR LABELLING OF DRUGS, AMINO ACIDS AN PROTEINS” (UNIVERSITY OF SALFORD, priority 2019, published 2023)
# Biological target: δ-opioid receptors (Homo sapiens, UniProt P41143)
# Details: relative to morphine; cited from earlier work
# Chain of δ-opioid receptors (P41143 whole entry): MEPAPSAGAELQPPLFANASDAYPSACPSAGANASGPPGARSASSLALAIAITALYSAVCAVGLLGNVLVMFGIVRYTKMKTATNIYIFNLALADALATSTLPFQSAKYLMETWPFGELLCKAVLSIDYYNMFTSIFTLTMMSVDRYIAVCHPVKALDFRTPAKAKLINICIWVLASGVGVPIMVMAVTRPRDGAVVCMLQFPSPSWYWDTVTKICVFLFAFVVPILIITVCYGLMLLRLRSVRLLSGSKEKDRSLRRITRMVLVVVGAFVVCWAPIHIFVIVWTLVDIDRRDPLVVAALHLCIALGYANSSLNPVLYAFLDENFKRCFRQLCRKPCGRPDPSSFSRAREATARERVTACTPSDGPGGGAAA
row,SMILES,higher potency than morphine at δ-opioid receptors [fold]
1,CC[C@@H]1CN2CC[C@]3(Nc4cccc(OC)c4C3=O)[C@@H]2C[C@@H]1/C(=C\OC)C(=O)OC [mitrogynine pseudoindoxyl],35

# Biological target: μ-opioid receptors (Homo sapiens, UniProt P35372)
# Sequence (P35372 whole entry): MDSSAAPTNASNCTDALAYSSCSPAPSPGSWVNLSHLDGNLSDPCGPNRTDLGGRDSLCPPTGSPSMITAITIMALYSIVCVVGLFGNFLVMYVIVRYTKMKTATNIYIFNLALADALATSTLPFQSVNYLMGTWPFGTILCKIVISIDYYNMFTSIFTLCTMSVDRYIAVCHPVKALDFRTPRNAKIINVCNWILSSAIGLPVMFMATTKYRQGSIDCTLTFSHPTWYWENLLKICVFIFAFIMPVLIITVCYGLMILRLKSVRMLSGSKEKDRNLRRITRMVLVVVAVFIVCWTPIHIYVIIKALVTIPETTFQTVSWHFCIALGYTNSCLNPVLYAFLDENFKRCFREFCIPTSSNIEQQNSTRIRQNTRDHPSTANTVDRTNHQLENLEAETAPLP
# Details: relative to morphine; cited from earlier work
row,SMILES,higher potency than morphine at μ-opioid receptors [fold]
1,CC[C@@H]1CN2CC[C@]3(Nc4cccc(OC)c4C3=O)[C@@H]2C[C@@H]1/C(=C\OC)C(=O)OC [mitrogynine pseudoindoxyl],20

# Tested on: not given
# Details: not given
row,SMILES,melting point [°C]
1,C=CCC1(C(=O)OC)C(=O)c2c(C)cccc2N1C (stereo not drawn),98 to 100
2,C=CCC1(C(=O)OC)C(=O)c2ccccc2N1C (stereo not drawn),90 to 93
3,C=CC(C)C1(C(=O)OC)C(=O)c2c(OC)cccc2N1C (stereo not drawn),89 to 91
4,C=CCC1(C(=O)OC)C(=O)c2cc(OC)ccc2N1C (stereo not drawn),99 to 101
5,C=CCC1(C(=O)OC)C(=O)c2c(OC)cccc2N1C (stereo not drawn),125 to 127
6,C=CC(C)(C)C1(C(=O)OC)C(=O)c2c(OC)cccc2N1C (stereo not drawn),86 to 88
7,C=CCC1(C(=O)OC)C(=O)c2c(ccc3ccccc23)N1C (stereo not drawn),144 to 147
